# Experimental data taken from US7482024B2, “Compositions comprising an active agent” (Nektar Therapeutics, priority 1999, dated 2009).
# “And” between values parts separate entries of the source, which are not always exact repeats. Equal values may be shown once.
# Assay: Surface tension measurement, Kruss Processor Tensiometer-K12, Wilhelmy-method (plate method)
# Assay type: physicochemical
# Conditions: for Surface tension, 25° C. Extrapolated Values at 2 mg/ml / Surface tension, 45° C. Extrapolated Values at 2 mg/ml: extrapolated to 2 mg/ml
# Experimental: A “surface active” material is one having surface activity (measured, e.g., by surface tensiometry), as characterized by its ability to reduce the surface tension of the liquid in which it is dissolved. […] A peptide that is more surface active than another peptide is one which decreases the surface tension of water to a greater extent, when present in the liquid at the same concentration and measured under the same set of experimental conditions. The surface tension of several representative dipeptides, tripeptides, and proteins was measured at 25° C. and 45° C. to provide an indication of their relative surface activities. Surface tension measurements were carried out using a Kruss Processor Tensiometer-K12 with the Wilhelmy-method (Plate method). Solutions were prepared by dissolving either 0.05%, 0.2%, or 0.6% peptide/protein (by weight) along with an appropriate amount of raffinose by weight to provide final solutions having a 1.0% by weight solids content. Surface tension measurements at 25° C. and 45° C. were then obtained for the test solutions at three different time points (49 seconds, 100 seconds and 194 seconds).
# [1] = 0.2% (wt/vol) plus raffinose to 1% total solids, 25° C., 49 s
# [2] = 0.2% (wt/vol) plus raffinose to 1% total solids, 25° C., 100 s
# [3] = 0.2% (wt/vol) plus raffinose to 1% total solids, 25° C., 194 s
molecule,measurement,setting,value
OC[C@H]1O[C@H](OC[C@H]2O[C@H](O[C@]3(CO)O[C@H](CO)[C@@H](O)[C@@H]3O)[C@H](O)[C@@H](O)[C@@H]2O)[C@H](O)[C@@H](O)[C@H]1O [raffinose],"Surface activity (ability to lower the surface tension of water), in words",,non-surface active
same,Surface tension (ST),"1% raffinose, 25° C., 49 s",72 mN/m
same,Surface tension (ST),"1% raffinose, 25° C., 100 s",72 mN/m
same,Surface tension (ST),"1% raffinose, 25° C., 194 s",72 mN/m
same,Surface tension (ST),"1% raffinose, pH4, 25° C., 49 s",71.4 mN/m and 71.1 mN/m
same,Surface tension (ST),"1% raffinose, pH4, 25° C., 100 s",71.4 mN/m and 71.1 mN/m
same,Surface tension (ST),"1% raffinose, pH4, 25° C., 194 s",71.4 mN/m and 71.1 mN/m
same,Surface tension (ST),"1% raffinose, pH4, 45° C., 49 s",67.9 mN/m and 68.2 mN/m and 68 mN/m
same,Surface tension (ST),"1% raffinose, pH4, 45° C., 100 s",68 mN/m and 68.2 mN/m
same,Surface tension (ST),"1% raffinose, pH4, 45° C., 194 s",68 mN/m and 68.2 mN/m and 68.1 mN/m
same,Surface tension (ST),"1% raffinose, pH7, 25° C., 49 s",71.1 mN/m
same,Surface tension (ST),"1% raffinose, pH7, 25° C., 100 s",71.1 mN/m
same,Surface tension (ST),"1% raffinose, pH7, 25° C., 194 s",71.1 mN/m
same,Surface tension (ST),"1% raffinose, pH7, 45° C., 49 s",68.4 mN/m and 68.3 mN/m
same,Surface tension (ST),"1% raffinose, pH7, 45° C., 100 s",68.4 mN/m and 68.3 mN/m
same,Surface tension (ST),"1% raffinose, pH7, 45° C., 194 s",68.4 mN/m and 68.3 mN/m
leu-tyr-leu,"Surface activity (ability to lower the surface tension of water), in words",,the most surface active of the trimers
same,"Surface tension, Actual MEAN","0.32 mg/ml, 25° C.",58.4 mN/m
same,"Surface tension, Actual MEAN","0.32 mg/ml, 45° C.",55.4 mN/m
same,"Surface tension, Actual MEAN","0.97 mg/ml, 25° C.",51.6 mN/m
same,"Surface tension, Actual MEAN","0.97 mg/ml, 45° C.",49.1 mN/m
same,"Surface tension, Actual MEAN","2.90 mg/ml, 25° C.",44.7 mN/m
same,"Surface tension, Actual MEAN","2.90 mg/ml, 45° C.",40.8 mN/m
same,"Surface tension, 25° C. Extrapolated Values at 2 mg/ml",25° C.,47.9 mN/m
same,"Surface tension, 45° C. Extrapolated Values at 2 mg/ml",45° C.,44.7 mN/m
Val-Leu [reference compound],"Surface tension, Actual MEAN","0.87 mg/ml, 25° C.",70 mN/m
same,"Surface tension, Actual MEAN","0.87 mg/ml, 45° C.",65.5 mN/m
same,"Surface tension, Actual MEAN","2.60 mg/ml, 25° C.",69.5 mN/m
same,"Surface tension, Actual MEAN","2.60 mg/ml, 45° C.",65.0 mN/m
same,"Surface tension, Actual MEAN","7.80 mg/ml, 25° C.",68 mN/m
same,"Surface tension, Actual MEAN","7.80 mg/ml, 45° C.",63.5 mN/m
same,"Surface tension, 25° C. Extrapolated Values at 2 mg/ml",25° C.,69.8 mN/m
same,"Surface tension, 45° C. Extrapolated Values at 2 mg/ml",45° C.,65.3 mN/m
"salmon calcitonin [sal. Calcitonin, reference compound]","Surface activity (ability to lower the surface tension of water), in words",,highly surface active
same,Surface tension (ST),[1],48.7 mN/m
same,Surface tension (ST),"0.2% (wt/vol) plus raffinose to 1% total solids, 25° C., 49 s, listed as sal. calcitonin",48.4 mN/m
same,Surface tension (ST),[2],48.6 mN/m
same,Surface tension (ST),"0.2% (wt/vol) plus raffinose to 1% total solids, 25° C., 100 s, listed as sal. calcitonin",48.4 mN/m
same,Surface tension (ST),[3],48.5 mN/m
same,Surface tension (ST),"0.2% (wt/vol) plus raffinose to 1% total solids, 25° C., 194 s, listed as sal. calcitonin",48.4 mN/m
Val-Ile [reference compound],"Surface tension, Actual MEAN","1.11 mg/ml, 25° C.",71.6 mN/m
same,"Surface tension, Actual MEAN","1.11 mg/ml, 45° C.",66.3 mN/m
same,"Surface tension, Actual MEAN","3.33 mg/ml, 25° C.",70.1 mN/m
same,"Surface tension, Actual MEAN","3.33 mg/ml, 45° C.",65.3 mN/m
same,"Surface tension, Actual MEAN","10.00 mg/ml, 25° C.",66.1 mN/m
same,"Surface tension, Actual MEAN","10.00 mg/ml, 45° C.",61.9 mN/m
same,"Surface tension, 25° C. Extrapolated Values at 2 mg/ml",25° C.,70.3 mN/m
same,"Surface tension, 45° C. Extrapolated Values at 2 mg/ml",45° C.,65.8 mN/m
Leu-Val [reference compound],"Surface tension, Actual MEAN","0.98 mg/ml, 25° C.",69.2 mN/m
same,"Surface tension, Actual MEAN","0.98 mg/ml, 45° C.",64.2 mN/m
same,"Surface tension, Actual MEAN","2.93 mg/ml, 25° C.",65 mN/m
same,"Surface tension, Actual MEAN","2.93 mg/ml, 45° C.",60.4 mN/m
same,"Surface tension, Actual MEAN","8.80 mg/ml, 25° C.",59.1 mN/m
same,"Surface tension, Actual MEAN","8.80 mg/ml, 45° C.",55.7 mN/m
same,"Surface tension, 25° C. Extrapolated Values at 2 mg/ml",25° C.,67.2 mN/m
same,"Surface tension, 45° C. Extrapolated Values at 2 mg/ml",45° C.,62.3 mN/m
di-isoleucine [reference compound],"Surface activity (ability to lower the surface tension of water), in words",,not particularly effective at lowering the surface tension of water
same,Surface tension (ST),"Table 2: 0.20% (wt/vol) plus 0.80% raffinose, 25° C., 49 s",67.7 mN/m and 67.6 mN/m and 68 mN/m
same,Surface tension (ST),"Table 2: 0.20% (wt/vol) plus 0.80% raffinose, 25° C., 100 s",71.6 mN/m and 67.2 mN/m and 67.8 mN/m
same,Surface tension (ST),"Table 2: 0.20% (wt/vol) plus 0.80% raffinose, 25° C., 194 s",71.6 mN/m and 67 mN/m and 67.6 mN/m
di-alanine [reference compound],Surface tension (ST),[1],72 mN/m and 72.1 mN/m
same,Surface tension (ST),[2],72 mN/m and 71.9 mN/m and 72.1 mN/m
same,Surface tension (ST),[3],71.9 mN/m and 72.1 mN/m
leu-phe-leu,"Surface tension, Actual MEAN","0.68 mg/ml, 25° C.",54.7 mN/m
same,"Surface tension, Actual MEAN","0.68 mg/ml, 45° C.",53.6 mN/m
same,"Surface tension, Actual MEAN","2.03 mg/ml, 25° C.",48.3 mN/m
same,"Surface tension, Actual MEAN","2.03 mg/ml, 45° C.",46.2 mN/m
same,"Surface tension, Actual MEAN","6.10 mg/ml, 25° C.",41.5 mN/m
same,"Surface tension, Actual MEAN","6.10 mg/ml, 45° C.",39.3 mN/m
same,"Surface tension, 25° C. Extrapolated Values at 2 mg/ml",25° C.,48.3 mN/m
same,"Surface tension, 45° C. Extrapolated Values at 2 mg/ml",45° C.,46.2 mN/m
